Values joined by “and” are separate entries in the source; they are usually repeats but may differ in a detail not shown here. Equal entries are not always repeated.
Experiment: rat acute oral toxicity
Conditions: in vivo

SMILES | LD50
CCC(C)=NO[Si](ON=C(C)CC)(ON=C(C)CC)ON=C(C)CC | 2450 mg/kg
Cc1ccc(Cl)cc1 | 2100 mg/kg
CC(O)COc1ccccc1 (stereo unspecified) | 2830 mg/kg
CCCCCCCCCCCCCCCCCCN | 1000 mg/kg
CC/C(C)=N/O[Si](C)(O/N=C(\C)CC)O/N=C(\C)CC | 2450 mg/kg
Cc1cccc([N+](=O)[O-])c1 | 1070 mg/kg
CCOC(=O)CCN(SN(C)C(=O)Oc1cccc2c1OC(C)(C)C2)C(C)C | 105 mg/kg
O=C(O)c1ccccc1O | 930 mg/kg and 891 mg/kg
COCC(C)O (stereo unspecified) | 3740 mg/kg
O=C=NC1CCC(CC2CCC(N=C=O)CC2)CC1 (stereo unspecified) | 1060 mg/kg
O=[N+]([O-])c1ccc(O)c([N+](=O)[O-])c1 | 30 mg/kg
CC#N | 2490 mg/kg
C[C@H]1OC(=O)[C@@H](C)OC1=O | 3540 mg/kg
O=[N+]([O-])c1cccc(O)c1 | 328 mg/kg
CCC[Si](OC)(OC)OC | 5170 mg/kg
COC(=O)CC(=O)CC(=O)OC | 4480 mg/kg
CC1(C)[C@H](C(=O)O[C@@H](C#N)c2cccc(Oc3ccccc3)c2)[C@@H]1C=C(Cl)Cl (single isomer, unassigned) | 57 mg/kg
CC(C)C(C(=O)OC(C#N)c1cccc(Oc2ccccc2)c1)c1ccc(Cl)cc1 (stereo unspecified) | 135 mg/kg
COCCOCCOC | 4760 mg/kg
CCCOCC(C)O (stereo unspecified) | 2490 mg/kg
CCCCC(C=O)CC (stereo unspecified) | 2600 mg/kg
CCC(=O)O[C@](Cc1ccccc1)(c1ccccc1)[C@H](C)CN(C)C | 135 mg/kg

SMILES | LD50
CN(C)C(=O)Nc1cccc(C(F)(F)F)c1 | 1450 mg/kg
CCC(N)CO (stereo unspecified) | 800 mg/kg
Clc1ccc(C(Cl)(Cl)Cl)cc1Cl | 1420 mg/kg
CCCCCCCCCc1ccc(OP(Oc2ccc(CCCCCCCCC)cc2)Oc2ccc(CCCCCCCCC)cc2)cc1 | 10000 mg/kg
CCCCC(CC)(CO)CO | 2800 mg/kg
CC1=NNC(=O)N(/N=C/c2cccnc2)C1 | 5690 mg/kg
NC(=O)CF | 5.75 mg/kg
CC=C1CC2CC1C1C3C=CC(C3)C21 (stereo unspecified) | 666 mg/kg
CCCC(=O)OC(C(Cl)(Cl)Cl)P(=O)(OC)OC (stereo unspecified) | 760 mg/kg
CCCCC(CC)C(=O)O (stereo unspecified) | 2040 mg/kg
CCN(C(=O)N(CC)c1ccccc1)c1ccccc1 | 781 mg/kg
CCCCCCCCOC(=O)c1cc(O)c(O)c(O)c1 | 1960 mg/kg
S=c1[nH]c(=S)[nH]c(=S)[nH]1 | 1180 mg/kg
c1ccc2ccccc2c1 | 2200 mg/kg
CCCCCCCCC=CCCCCCCCC1=NCCN1CCO | 1000 mg/kg
CC(=O)CC(c1ccccc1)c1c(O)c2ccccc2oc1=O (stereo unspecified) | 1.6 mg/kg
C1CN(SSN2CCOCC2)CCO1 | 4300 mg/kg
ClC1(Cl)C2(Cl)C3(Cl)C4(Cl)C(Cl)(Cl)C5(Cl)C3(Cl)C1(Cl)C5(Cl)C24Cl (stereo unspecified) | 235 mg/kg
O=C(O)c1ccccc1 | 1700 mg/kg
CCOCCOCCOCC | 4970 mg/kg
Cc1cccc([N+](=O)[O-])c1C | 2110 mg/kg
CCC(C)(C#N)/N=N/C(C)(C#N)CC (stereo unspecified) | 333 mg/kg

SMILES | LD50
COCCOCCOCCOCCOC | 3850 mg/kg
CC(C)COC(=O)CC(C(=O)OCC(C)C)S(=O)(=O)O (stereo unspecified) | 2770 mg/kg
OCCc1ccccn1 | 3840 mg/kg
CN(Cc1cnc2nc(N)nc(N)c2n1)c1ccc(C(=O)N[C@@H](CCC(=O)O)C(=O)O)cc1 | 135 mg/kg
O=C1CCN(c2ccccc2)N1 | 200 mg/kg
C=CCn1c(=O)n(CC=C)c(=O)n(CC=C)c1=O | 707 mg/kg
CCOC(=O)CCl | 50 mg/kg
CCCCOCC(C)O (stereo unspecified) | 2500 mg/kg
CC1=C(C(=O)Nc2ccccc2)SCCO1 | 430 mg/kg
C1=CCCC=CCCC=CCC1 | 1780 mg/kg
O=c1[nH]c(=O)n(Cl)c(=O)n1Cl | 1170 mg/kg and 1420 mg/kg
CCCCC(=O)O | 1060 mg/kg
CCN(CC)C(=S)S | 1500 mg/kg
ClC(Cl)(Cl)Cl | 2350 mg/kg
CCOP(=S)(OCC)SCSP(=S)(OCC)OCC | 13 mg/kg
Clc1cc2c(c(Cl)c1Cl)Oc1cc(Cl)c(Cl)c(Cl)c1O2 | 0.8 mg/kg
CC1(C)OC(c2ccco2)CN1C(=O)C(Cl)Cl (stereo unspecified) | 521 mg/kg
N#CN | 134 mg/kg
CC(=O)C=C(C)C | 300 mg/kg
CC[N+](=O)[O-] | 1080 mg/kg
ClCC(Cl)CCl | 136 mg/kg
CCCC(C)(COC(N)=O)COC(N)=O | 794 mg/kg

SMILES | LD50
CCS(=O)CCSP(=O)(OC)OC (stereo unspecified) | 48 mg/kg
O=C=Nc1ccccc1 | 800 mg/kg
CC(C)CC=O | 5600 mg/kg
CCOP(=S)(OCC)Oc1ccc(S(C)=O)cc1 (stereo unspecified) | 1.8 mg/kg
COC[C@H](C)N(C(=O)CCl)c1c(C)csc1C | 371 mg/kg
O=[N+]([O-])c1ccc(Cl)cc1 | 460 mg/kg
CC(O)CN(CCCN(C)C)CCCN(C)C (stereo unspecified) | 1330 mg/kg
CC1(C)C(C=C(Cl)Cl)C1C(=O)OC(C#N)c1ccc(F)c(Oc2ccccc2)c1 (stereo unspecified) | 270 mg/kg
CCN(C)C | 594 mg/kg
CC(=O)OC1CC(C)OC(C)O1 (stereo unspecified) | 1930 mg/kg
CCNCCO | 1000 mg/kg
c1ccc(Oc2ccccc2)cc1 | 2450 mg/kg
Clc1cccc(Cl)c1Cl | 756 mg/kg
CCCCCCCCCCCCN(CCCN)CCCN | 252 mg/kg
CC(C)(C)N | 44 mg/kg
O=Cc1ccncc1 | 2170 mg/kg
Cc1cccc(Nc2cc(Cl)nc(SCC(=O)O)n2)c1C | 1050 mg/kg
CC(C)N | 111 mg/kg
CCCCN(C)C | 184 mg/kg
CCCCOC(=O)C(C)Oc1ccc(Oc2ccc(C(F)(F)F)cn2)cc1 (stereo unspecified) | 2910 mg/kg
